Tests used:
NPR2 [1] = assay: cGMP production in tibia growth plates using cGi500 FRET sensor; format: cell-based, mouse; details: for cGMP (CFP/YFP emission ratio from cGi500) on perfusion across the growth plate: newborn mouse tibia growth plate; for CNP-induced cGMP increase after FGF treatment: then FGF 80 min, newborn mouse tibia
Procedure: cGMP production in chondrocytes within intact growth plates was measured using tibias dissected from newborn mice (0-1 day old) that globally expressed one or two copies of the cGi500 FRET sensor, as previously described (Shuhaibar et al., 2017).Tibias were dissected and cultured overnight on Millicell membranes in BGJb medium with 0.1% bovine serum albumin, 100 units/ml of penicillin, and 100 μg/ml of streptomycin. In preparation for imaging, each tibia was slit to remove the tissue overlying the growth plate. Where indicated, the tibia was incubated in LB-100, cantharidin, or control medium, followed by addition of FGF18 (0.5 μg/ml+1 μg/ml heparin) or control medium containing heparin only. The tibia was then placed in a perfusion slide and the growth plate was imaged on the stage of a confocal microscope, as previously described (Shuhaibar et al., 2017).
NPR2 activity in chondrocytes of intact growth plates was measured as previously described, using mice expressing a FRET sensor for cGMP, cGi500 (Shuhaibar et al., 2017). Tibias were isolated from newborn mice, and the overlying tissue was excised to expose the growth plate for confocal imaging (Data not shown). When the NPR2 agonist C-type natriuretic peptide (CNP) was perfused across the growth plate, the CFP/YFP emission ratio from cGi500 increased, indicating an increase in cGMP, due to stimulation of the guanylyl cyclase activity of NPR2 (Data not shown).
To investigate if LB-100 counteracts the inactivation of NPR2 by FGF, we used the following protocol:Tibias expressing cGi500 were preincubated with solutions of 1, 5 or 10 μM LB-100 for 60 minutes. FGF was then added and the incubation was continued for an additional 80 minutes. Following these incubations, the tibia was placed in a perfusion slide for confocal imaging, and cGMP production by NPR2 was monitored by measuring the increase in CFP/YFP emission ratio in response to CNP.

Fgfr3^Y367C/+ femurs = assay: Ex vivo culture of fetal femurs from Fgfr3^Y367C/+ mice (growth in length and area); format: cell-based, mouse; details: E16.5 Fgfr3^Y367C/+ femurs, 6 day culture; BMN-111 0.1 μM, LB-100 10 μM
Procedure: (§1) FIG. 1. LB-100 and BMN-111 act synergistically to stimulate growth in fetal femurs from Fgfr3^Y367C/+ mice.(A) Diagram showing sites of action of LB-100 and BMN-111. (B) Representative photographs of fetal femurs from E16.5 day old Fgfr3+/+ (wildtype) and Fgfr3^Y367+ mice, before (D0) and after a 6 day (D6) culture with the indicated treatments. […] For all experiments, the concentration of BMN-111 was 0.1 μM, and the concentration of LB-100 was 10 μM. Symbols in graphs C-E indicate individual bones (n=4−10). Bars represent mean ±SEM and data were analyzed by unpaired two-tailed t-tests. Asterisks indicate significant differences (p<0.05) between indicated groups; n.s. indicates no significant difference (p>0.05).
(§2) Femurs were cultured ex vivo, as described previously (Jonquoy et al., 2012; Lorget et al., 2012). The left femur was cultured in the presence of LB-100 (10 μM), BMN-111 (0.1 μM), or LB-100 (10 μM)+BMN-111 (0.1 μM), and compared with the non-treated right femur. The bone's length was measured on day 0 (D0) and day 6 (D6). Images were captured with an Olympus SZX12 stereo microscope and quantified using cellSens software (Olympus). The results were expressed as the increase in femur length or area (D6-D0) in the presence or absence of LB-100, BMN-111, or LB-100+BMN-111.

[2] = tested on: growth plates of Fgfr3^Y367C/+ femurs; assay: Histology and immunohistochemistry of growth plates of ex vivo cultured Fgfr3^Y367C/+ femurs; format: cell-based, mouse
Procedure: FIG. 2. Dual action of LB-100 and BMN-111 improves chondrocyte differentiation in growth plates of ex-vivo cultured Fgfr3^Y367C/+ femurs. Mean area of individual hypertrophic chondrocytes in proximal growth plates of femurs treated (n=4−6 bones measured for each condition, with 54-137 cells measured for each bone). Data were analyzed by one-way ANOVA followed by the Holm-Sidak multiple comparison test (*p<0.05, **p<0.01, ****p<0.0001).
Fetal femur (E16.5) explants were fixed in 4% paraformaldehyde, decalcified with EDTA (0.4 M), and embedded in paraffin. Serial 5 μm sections were stained with hematoxylin-eosin-safran (HES) reagent, using standard protocols. For immunohistochemical assessment, sections were labeled with the following antibodies and a Dako Envision Kit: anti-COL X (BIOCYC, N.2031501005; 1:50 dilution), anti-phosphorylated ERK1-2 ([…]) (Cell Signaling Technology, #4370; 1:100 dilution), and anti-S0X9 (polyclonal antibody, Santa Cruz Biotechnology Inc., catalog D0609; dilution 1:75). Images were captured with an Olympus PD70-IX2-UCB microscope and quantified using cellSens software.
We measured the total area occupied by chondrocytes within the whole growth plate and the area occupied by COLX-positive chondrocytes. The area for proliferating chondrocytes was calculated by subtracting the COLX-positive area from the whole growth plate area.

Fgfr3+/+ femurs = assay: Ex vivo culture of fetal femurs from Fgfr3+/+ mice (growth in length and area); format: cell-based, mouse; details: BMN-111 0.1 μM, LB-100 10 μM, 6 day culture
Procedure: as §1, §2

[3] = tested on: children 5 to 14 years of age with achondroplasia; details: for up to 42 months; Savarirayan et al., 2019; cited from earlier work
NPR2 [4] = details: cantharidin 100 μM (Shuhaibar et al., 2017); cited from earlier work
PPP2 = PPP2 (Homo sapiens, UniProt P67775); details: in vitro, DiFMUP as substrate (D'Arcy et al., 2019); cited from earlier work
[5] = Chung et al., 2017; cited from earlier work
PPP1 = details: same conditions, DiFMUP; Richard Honkanen, personal communication; cited from earlier work
PPPS = target: T1, PPPS (Homo sapiens, UniProt P53041); details: in vitro, DiFMUP as substrate (D'Arcy et al., 2019); cited from earlier work
T1 sequence (P53041 1-499): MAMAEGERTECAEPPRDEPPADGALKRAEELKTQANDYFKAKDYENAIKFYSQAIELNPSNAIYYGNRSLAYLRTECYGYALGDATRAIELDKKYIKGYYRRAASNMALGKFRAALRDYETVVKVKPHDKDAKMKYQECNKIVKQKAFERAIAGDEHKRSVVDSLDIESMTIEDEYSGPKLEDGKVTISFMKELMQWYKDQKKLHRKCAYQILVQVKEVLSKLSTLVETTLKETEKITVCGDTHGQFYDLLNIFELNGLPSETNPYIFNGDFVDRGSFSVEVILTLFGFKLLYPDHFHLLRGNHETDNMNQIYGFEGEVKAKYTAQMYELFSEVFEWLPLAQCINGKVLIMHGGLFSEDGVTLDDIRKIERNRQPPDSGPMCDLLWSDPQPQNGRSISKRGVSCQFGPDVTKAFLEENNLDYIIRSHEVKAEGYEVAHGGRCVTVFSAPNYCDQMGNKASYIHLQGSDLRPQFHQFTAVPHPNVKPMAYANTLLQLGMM

NPR2 [6] = assay: Phos-tag gel electrophoresis / western blot of NPR2 in rib chondrocyte cultures; format: cell-based, mouse
Procedure: Rib cages were dissected from newborn (0-2 day old) mice, and trimmed to remove the skin, spinal cord, and soft tissue around the sternum and ribs. Non-chondrocyte tissue was digested away by incubating the rib cages in 2 mg/ml pronase in PBS for one hour in a shaking water bath at 37° C., and then incubated in 3 mg/ml collagenase D in medium for one hour. After washing, the rib cages were transferred to a dish with fresh collagenase D and incubated for 5-6 hours, with trituration at 2 hours, to release the chondrocytes. The isolated cells were passed through a 40 um nylon cell strainer, resuspended in DMEM/F12 medium with 10% fetal bovine serum, 100 units/ml of penicillin, and 100 μg/m1 of streptomycin, and plated in 35 mm tissue culture dishes, at a cell density corresponding to one newborn mouse per plate. The cells were cultured for 3 days, at which point they were ˜75-90% confluent, then washed with PBS and incubated in serum-free medium for 18 hours. The cells were then incubated in LB-100 (10 μM), or control medium, followed by addition of FGF18 (0.5 ug/ml+1 μg/ml heparin) or control medium containing heparin only.
At end of the incubation period, dishes were washed in PBS and cells lysed in 250 μl of 1% SDS containing 10 mM sodium fluoride, 1 μM microcystin, and Roche protease inhibitor cocktail. Protein content was determined by a BCA assay. […]

PPP2, sequence (P67775 whole entry): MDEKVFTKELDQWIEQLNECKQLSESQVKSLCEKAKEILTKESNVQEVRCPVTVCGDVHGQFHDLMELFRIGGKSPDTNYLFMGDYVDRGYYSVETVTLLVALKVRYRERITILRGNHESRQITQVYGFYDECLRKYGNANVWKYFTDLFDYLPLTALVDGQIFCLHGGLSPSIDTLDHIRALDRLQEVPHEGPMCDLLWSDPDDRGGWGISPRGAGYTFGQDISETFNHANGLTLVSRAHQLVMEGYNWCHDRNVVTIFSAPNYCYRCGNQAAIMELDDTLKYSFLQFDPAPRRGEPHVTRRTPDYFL

ANP: A-type natriuretic peptide, which activates the NPR1 guanylyl cyclase
cGMP (CFP/YFP emission ratio from cGi500) on perfusion across the growth plate (NPR2 [1]): did not increase cGMP

CCN(CC)/[N+]([O-])=N/O [DEA/NO]
cGMP (CFP/YFP emission ratio from cGi500) on perfusion across the growth plate (NPR2 [1]): did not increase cGMP

[Cyc(23,39)]H2NPGQEHPNARKYKGANKKGLSKGCFGLKLDRIGSMSGLGC—OH [BMN-111]
Mean rate of increase in bone length relative to vehicle/untreated bones (growth rate ratio) (Fgfr3^Y367C/+ femurs): 1.77 | Rate of increase of total bone and cartilage area relative to control (growth rate ratio) (Fgfr3^Y367C/+ femurs): 1.51 | NPR2 activity in growth plate chondrocytes (NPR2 [1]; BMN-111 0.1 μM): stimulated NPR2 activity | Size of Fgfr3^Y367C/+ hypertrophic chondrocytes ([2]; COLX immunostaining, ex vivo cultured femurs): increased the size | Increase of total proliferative growth plate area of the femur over vehicle ([2]; Fgfr3^Y367C/+ femurs, average): 20% | Rate of bone growth (length and area) (Fgfr3+/+ femurs): increased the rate of bone growth | Annualized growth velocity in phase 2 [3]: sustained increase in annualized growth velocity

C[C@@]12C(=O)OC(=O)[C@]1(C)[C@H]1CC[C@@H]2O1 [cantharidin]
Inactivation of NPR2 in growth plate chondrocytes by FGF (NPR2 [4]): inhibits the inactivation of NPR2 in growth plate chondrocytes by FGF

CN1CCN(C(=O)C2C3CCC(O3)C2C(=O)O)CC1 (stereo not drawn) [LB-100, 3-(4-methylpiperazine-1-carbonyl)-7-oxabicyclo[2.2.1]heptane-2-carboxylic acid]
IC50 (PPP2): 390 ± 13 nM | Toxicity in phase I clinical trial [5]: little toxicity | Mean rate of increase in bone length relative to vehicle/untreated bones (growth rate ratio) (Fgfr3^Y367C/+ femurs): 1.04 | Rate of increase of total bone and cartilage area relative to control (growth rate ratio) (Fgfr3^Y367C/+ femurs): 1.40 | IC50 (PPP1): 1800 ± 22 nM | CNP-induced cGMP increase after FGF treatment (NPR2 [1]; 1 μM LB-100 preincubation 60 min): had no effect | Effectiveness in counteracting NPR2 inactivation by FGF compared with cantharidin (NPR2 [1]; 5 μM LB-100 equivalent to 10 μM cantharidin): more effective than cantharidin | CNP-induced cGMP increase after FGF treatment (NPR2 [1]; 5 μM LB-100 preincubation 60 min): enhanced | Chondrocyte morphology in live growth plate (toxicity) (NPR2 [1]; 10 μM LB-100, confocal microscopy): no visible change in chondrocyte morphology | CNP-induced cGMP increase after FGF treatment (NPR2 [1]; 10 μM LB-100 preincubation 60 min): enhanced | IC50 (PPPS): 1820 ± 93 nM | Cell morphology of rib chondrocytes (NPR2 [6]; 1 hour incubation with 10 μM LB-100): did not cause any visible change in cell morphology | NPR2 dephosphorylation in response to FGF (NPR2 [6]; preincubation with 10 μM LB-100, primary rib chondrocytes): only partial

B1: FGF18: fibroblast growth factor used with heparin to activate FGF receptor (protein, UniProt O76093 28-207, looked up)
Fibroblast growth factor 18: EENVDFRIHVENQTRARDDVSRKQLRLYQLYSRTSGKHIQVLGRRISARGEDGDKYAQLLVETDTFGSQVRIKGKETEFYLCMNRKGKLVGKPDGTSKECVFIEKVLENNYTALMSAKYSGWYVGFTKKGRPRKGPKTRENQQDVHFMKRYPKGQPELQKPFKYTTVTKRSRRIRPTHPA
cGMP increase in response to CNP perfusion after exposure to FGF18 (NPR2 [1]; FGF18 0.5 μg/ml + 1 μg/ml heparin): suppressed the cGMP increase in response to CNP perfusion

From patent publication US20230233553A1, “A NEW COMBINATION THERAPY FOR THE TREATMENT OF FGFR3- RELATED SKELETAL DISEASE” (INSERM (INSTITUT NATIONAL DE LA SANTÉ ET DE LA RECHERCHE …, priority 2020, published 2023)
